Results on 5 molecules are retold here after PMC10350924, “Design, Synthesis, and Pharmacological Characterization of a Potent Soluble Epoxide Hydrolase Inhibitor for the Treatment of Acute Pancreatitis” (Journal of Medicinal Chemistry, 2023).

Each structure is given as a SMILES string.

One data set addresses T1, Human recombinant sEH (Homo sapiens, UniProt P34913).
T1 construct: made in house; host or cells: Sf9 insect cells (recombinant baculovirus)
T1 sequence (P34913 1-555): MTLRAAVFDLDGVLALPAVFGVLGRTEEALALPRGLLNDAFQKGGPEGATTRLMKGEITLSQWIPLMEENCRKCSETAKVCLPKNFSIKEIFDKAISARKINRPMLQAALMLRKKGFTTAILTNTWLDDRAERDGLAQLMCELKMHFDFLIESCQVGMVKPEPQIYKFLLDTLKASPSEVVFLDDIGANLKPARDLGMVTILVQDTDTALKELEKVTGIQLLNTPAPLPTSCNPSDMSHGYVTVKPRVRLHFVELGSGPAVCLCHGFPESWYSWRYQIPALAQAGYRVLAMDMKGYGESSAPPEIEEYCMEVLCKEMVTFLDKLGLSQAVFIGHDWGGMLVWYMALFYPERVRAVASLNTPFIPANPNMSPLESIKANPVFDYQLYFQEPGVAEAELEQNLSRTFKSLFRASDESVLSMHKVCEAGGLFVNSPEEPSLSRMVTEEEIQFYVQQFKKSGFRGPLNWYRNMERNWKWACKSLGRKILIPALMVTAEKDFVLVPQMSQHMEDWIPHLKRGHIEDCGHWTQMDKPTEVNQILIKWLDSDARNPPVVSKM
As to the kind of experiment: Cell-free sEH activity (PHOME fluorescence). Type of data set: biochemical. The following applies: human isolated sEH. The method, then:
Human recombinant sEH was expressed in Sf9 insect cells and purified by affinity chromatography. […] Elution with 4-fluorochalcone oxide in PBS pH 7.4 with 1 mM dithiothreitol and 1 mM EDTA yielded sEH, which was dialyzed and concentrated. Purified sEH (60 ng) in 25 mM Tris HCl pH 7 with 0.1 mg/mL bovine serum albumin (BSA) was preincubated with the vehicle (DMSO) or test compounds for 1 min at room temperature. The sEH substrate PHOME (20 μM, Cayman Chemicals) was added to start the enzymatic reaction, which was stopped after 60 min in the dark by the addition of ZnSO4 (200 mM).

The nature of data set [1]: In vivo pharmacokinetic profile in mice after i.p. administration. The following applies: mouse, plasma, ip, 10 mg/kg i.p., single dose. The protocol:
For analysis of plasma levels of 28, mice (6 per group) received 10 mg/kg i.p. injection in a volume of 500 μL of DMSO 2% in saline. After selected time points, the mice were sacrificed (CO2 atmosphere) and blood (approximately 0.7–0.9 mL) was collected by intracardiac puncture using citrate as an anticoagulant. Then, plasma was obtained by centrifugation at 800g at 4 °C for 10 min and immediately frozen at −80 °C. The analyses were performed using a Shimadzu Nexera UHPLC (Kyoto, Japan) consisting of two LC-30AD pumps, a SIL-30AC autosampler, a CTO-20AC column oven, and a CBM-20A controller. Chromatographic conditions have previously been reported in the Chemical and Metabolic Stability section. The chromatographic system was coupled online to a triple quadrupole LCMS-8050 (Shimadzu) equipped with an electrospray ionization (ESI) source operating in positive mode. Quantification was performed in scheduled multiple reaction monitoring (MRM) mode. The transitions (Table S2) were m/z 456 > 149.2 (quantifier ion), 456 > 166.2 (qualifier ion) for compound 28, and m/z 458 > 149.2 (quantifier ion), 458 > 166.2 (qualifier ion) for IS. Dwell time, interface temperature, DL temperature, and heat block temperature were set to 100 ms, 300, 250, and 350 °C, respectively. Nebulizing gas, heating gas, and drying gas flow were set to 3, 10, and 10 L min^–1, respectively. All of the data was collected in the centroid mode and acquired and processed using Lab Solution workstation software. Stock solutions of 28 and IS were prepared in DMSO (1 mg mL^–1). The standards of 28 were prepared by dilution of the stock solution with methanol to obtain the working stock solutions in plasma of the following concentrations: 0.2, 0.5, 1, 5, 10, 20, and 50 ng mL^–1 for calibration curve. Calibration standards were prepared by spiking 100 μL of mouse plasma with a suitable working solution of 28 and IS to obtain a final concentration of 5 ng mL^–1 of the IS in each sample. For the extraction of 28 from mouse plasma, the method of protein precipitation was employed. Briefly, the frozen plasma samples were thawed at room temperature. 200 μL of ice-cold acetonitrile containing IS was added to 100 μL of plasma. The extraction was performed by vortex mixing for 5 min, followed by centrifugation for 10 min at 14,600 rpm at 25 °C. The supernatants were collected, filtered by […] RC-membranes, and then injected in UHPLC-MS/MS. […] The maximum concentration (Cmax) and time to reach Cmax (Tmax) were determined from the plasma concentration versus time data. The area under the plasma concentration–time curve from time 0 to infinity concentration (AUC0–∞) was determined using the linear trapezoidal method. The elimination half-life (T1/2) was calculated using ln(2)/ke.

The test system of data set [2] is PGE2 production in LPS-stimulated J774 murine macrophages. As to the kind of experiment: PGE2 production in LPS-stimulated J774 macrophages. Type of data set: cell-based. The following applies: Mus musculus; J774, 2 h pre-treatment 0.1–10 μM, LPS 10 μg/mL 24 h; read-out: IC50 for reduction of PGE2 levels. The protocol:
Murine monocyte/macrophage J774 cell line was obtained from the American Type Culture Collection (ATTC TIB 67). The cell line was grown in adhesion in Dulbecco’s modified Eagle’s medium (DMEM) supplemented with glutamine (2 mM, Aurogene Rome, Italy), Hepes (25 mM, Aurogene Rome, Italy), penicillin (100 U/mL, Aurogene Rome, Italy), streptomycin (100 μg/mL, Aurogene Rome, Italy), fetal bovine serum (FBS, 10%, Aurogene Rome, Italy), and sodium pyruvate (1.2%, Aurogene Rome, Italy) (DMEM completed). The cells were plated at a density of 1 × 10^6 cells in 75 cm^2 culture flasks and maintained at 37 °C under 5% CO2 in a humidified incubator until 90% confluence. The culture medium was changed every 2 days. Before a confluent monolayer appeared, subculturing cell process was carried out. Cells (0.5 × 10^6 cells/mL) were pretreated for 2 h in the absence or presence of 28 (0.1–10 μM) and then stimulated, for 24 h, with lipopolysaccharide (LPS) from E. coli, Serotype 0111:B4, (10 μg/mL; 100 μL in DMEM completed with FBS, Sigma-Aldrich, Milan, Italy).[42] The supernatants were collected for the measurement of PGE2 levels by ELISA assay (Cayman Chemical, Vinci-Biochem, Vinci, Italy).

Broadly, the IC50 is the point on the concentration scale where inhibition reaches its midpoint. For `O=C(Nc1ccc2c(c1)CCN2Cc1ccc(F)cc1)NC12C[C@H]3C[C@@H](C1)C[C@@H](C2)C3` [Compound 6, 1-((3S,5S,7S)-Adamantan-1-yl)-3-(1-(4-fluorobenzyl)indolin-5-yl)urea], on Human recombinant sEH, the half-maximal inhibitory concentration (IC50) was 7.22 ± 1.11 nM.
For `O=C(NCC12C[C@H]3C[C@@H](C1)C[C@@H](C2)C3)Nc1ccc2c(ccn2Cc2ccc(F)cc2)c1` [Compound 27, 1-(((3R,5R,7R)-Adamantan-1-yl)methyl)-3-(1-(4-fluorobenzyl)-1H-indol-5-yl)urea], at Human recombinant sEH, the 50% inhibitory concentration (IC50) amounted to 1.75 ± 0.593 nM.
The term AUC(0-inf) denotes total exposure, with the tail of the curve extrapolated. A high value points to high exposure. Usually Cmax stands for the peak of the concentration-time curve. As usually defined, the Tmax is the time at which the peak concentration occurs. One may read the half-life as how long it takes for the measured level to halve. As to `CC(C)c1ccc(Cn2ccc3cc(NC(=O)NCC45C[C@H]6C[C@@H](C4)C[C@@H](C5)C6)ccc32)cc1` [Compound 28, 1-(((3R,5R,7R)-Adamantan-1-yl)methyl)-3-(1-(4-isopropylbenzyl)-1H-indol-5-yl)urea], the IC50 on Human recombinant sEH stood at 2 ± 1.1 nM. Moreover, in data set [1], the AUC(0-inf) at 24 h was determined as 29.9 ng·h/mL, the Cmax at 24 h turned out to be 4.17 ng/mL, the Tmax at 24 h amounted to 2 h and the half-life at 24 h is 7.6 h. Further, the IC50 in data set [2] is more than 10000 nM.
As to `O=C(NCC12C[C@H]3C[C@@H](C1)C[C@@H](C2)C3)Nc1ccc2c(ccn2CCc2ccc(F)cc2)c1` [Compound 30, 1-(((3R,5R,7R)-Adamantan-1-yl)methyl)-3-(1-(4-fluorophenethyl)-1H-indol-5-yl)urea], on Human recombinant sEH, the IC50 was found to be 1.1 ± 0.4 nM.
The same measure, in the same setting: the value for `O=C(NCC12C[C@H]3C[C@@H](C1)C[C@@H](C2)C3)Nc1ccc2c(ccn2C(=O)c2ccc(F)cc2)c1` [Compound 36, 1-(((3R,5R,7R)-Adamantan-1-yl)methyl)-3-(1-(4-fluorobenzoyl)-1H-indol-5-yl)urea] was 2.6 ± 0.4 nM.
